Source: ChEMBL document CHEMBL2086230, “Comparison of the cytotoxic effects of enantiopure PPAPs, including nemorosone and clusianone” (Bioorg Med Chem Lett, 2012)
pIC50: −log10 of the molar value.

System: HeLa
Test: Cytotoxicity against human HeLa cells after 72 hrs by resazurin assay
Format: functional, cell-based
Conditions: Homo sapiens, HeLa, 72 h

Structure (SMILES) | pIC50
CC(C)=CCC1=C(O)[C@@]2(C(=O)c3ccccc3)C(=O)[C@](CC=C(C)C)(C[C@H](CC=C(C)C)C2(C)C)C1=O | 5.54
CC(C)=CCC1=C(O)C2(CC=C(C)C)CC(CC=C(C)C)C(C)(C)C(C(=O)c3ccccc3)(C1=O)C2=O (single isomer, unassigned; (+)) | 5.41
CC(C)=CCC1=C(O)C2(C(=O)c3ccccc3)CC(CC=C(C)C)C(C)(C)C(CC=C(C)C)(C1=O)C2=O (single isomer, unassigned; (+)) | 5.00
CC(C)=CC[C@H]1C[C@]2(CC=C(C)C)C(=O)[C@@](CC=C(C)C)(C(=O)C(C(=O)c3ccccc3)=C2O)C1(C)C (stereo in doubt; (+)-4) [6-EPI-CLUSIANONE] | 5.24
Nc1ccn([C@@H]2O[C@H](CO)[C@@H](O)C2(F)F)c(=O)n1 [GEMCITABINE] | 7.30

Same assay, conditions: hela

Structure (SMILES) | pIC50
CC(C)=CCC1=C(O)C2(CC=C(C)C)CC(CC=C(C)C)C(C)(C)C(C(=O)c3ccccc3)(C1=O)C2=O (stereo in doubt; (-)-3) | 5.47
CC(C)=CC[C@H]1C[C@]2(CC=C(C)C)C(=O)[C@@](CC=C(C)C)(C(=O)C(C(=O)c3ccccc3)=C2O)C1(C)C (stereo in doubt; (-)-4) [6-EPI-CLUSIANONE] | 5.52
CC(C)=CCC1=C(O)C2(C(=O)c3ccccc3)CC(CC=C(C)C)C(C)(C)C(CC=C(C)C)(C1=O)C2=O (stereo in doubt; (-)-5) | 4.96

System: MCF7
Test: Cytotoxicity against human MCF7 cells after 72 hrs by resazurin assay
Format: functional, cell-based
Conditions: Homo sapiens, MCF7, 72 h

Structure (SMILES) | pIC50
CC(C)=CCC1=C(O)[C@@]2(C(=O)c3ccccc3)C(=O)[C@](CC=C(C)C)(C[C@H](CC=C(C)C)C2(C)C)C1=O | 5.28
CC(C)=CCC1=C(O)C2(CC=C(C)C)CC(CC=C(C)C)C(C)(C)C(C(=O)c3ccccc3)(C1=O)C2=O (single isomer, unassigned; (+)) | 5.19
CC(C)=CCC1=C(O)C2(C(=O)c3ccccc3)CC(CC=C(C)C)C(C)(C)C(CC=C(C)C)(C1=O)C2=O (single isomer, unassigned; (+)) | 4.72
CC(C)=CC[C@H]1C[C@]2(CC=C(C)C)C(=O)[C@@](CC=C(C)C)(C(=O)C(C(=O)c3ccccc3)=C2O)C1(C)C (stereo in doubt; (+)-4) [6-EPI-CLUSIANONE] | 5.08
Nc1ccn([C@@H]2O[C@H](CO)[C@@H](O)C2(F)F)c(=O)n1 [GEMCITABINE] | 7.22

Same assay, conditions: mcf7

Structure (SMILES) | pIC50
CC(C)=CCC1=C(O)C2(CC=C(C)C)CC(CC=C(C)C)C(C)(C)C(C(=O)c3ccccc3)(C1=O)C2=O (stereo in doubt; (-)-3) | 5.10
CC(C)=CC[C@H]1C[C@]2(CC=C(C)C)C(=O)[C@@](CC=C(C)C)(C(=O)C(C(=O)c3ccccc3)=C2O)C1(C)C (stereo in doubt; (-)-4) [6-EPI-CLUSIANONE] | 5.24
CC(C)=CCC1=C(O)C2(C(=O)c3ccccc3)CC(CC=C(C)C)C(C)(C)C(CC=C(C)C)(C1=O)C2=O (stereo in doubt; (-)-5) | 4.96

System: MIA PaCa-2
Test: Cytotoxicity against human MIAPaCa2 cells after 72 hrs by resazurin assay
Format: functional, cell-based
Conditions: Homo sapiens, MIA PaCa-2, 72 h

Structure (SMILES) | pIC50
CC(C)=CCC1=C(O)[C@@]2(C(=O)c3ccccc3)C(=O)[C@](CC=C(C)C)(C[C@H](CC=C(C)C)C2(C)C)C1=O | 5.62
CC(C)=CCC1=C(O)C2(CC=C(C)C)CC(CC=C(C)C)C(C)(C)C(C(=O)c3ccccc3)(C1=O)C2=O (single isomer, unassigned; (+)) | 5.47
CC(C)=CCC1=C(O)C2(C(=O)c3ccccc3)CC(CC=C(C)C)C(C)(C)C(CC=C(C)C)(C1=O)C2=O (single isomer, unassigned; (+)) | 4.95
CC(C)=CC[C@H]1C[C@]2(CC=C(C)C)C(=O)[C@@](CC=C(C)C)(C(=O)C(C(=O)c3ccccc3)=C2O)C1(C)C (stereo in doubt; (+)-4) [6-EPI-CLUSIANONE] | 5.28
Nc1ccn([C@@H]2O[C@H](CO)[C@@H](O)C2(F)F)c(=O)n1 [GEMCITABINE] | 7.22

Same assay, conditions: mia paca-2

Structure (SMILES) | pIC50
CC(C)=CCC1=C(O)C2(CC=C(C)C)CC(CC=C(C)C)C(C)(C)C(C(=O)c3ccccc3)(C1=O)C2=O (stereo in doubt; (-)-3) | 5.46
CC(C)=CC[C@H]1C[C@]2(CC=C(C)C)C(=O)[C@@](CC=C(C)C)(C(=O)C(C(=O)c3ccccc3)=C2O)C1(C)C (stereo in doubt; (-)-4) [6-EPI-CLUSIANONE] | 5.42
CC(C)=CCC1=C(O)C2(C(=O)c3ccccc3)CC(CC=C(C)C)C(C)(C)C(CC=C(C)C)(C1=O)C2=O (stereo in doubt; (-)-5) | 5.07
